The subject of this test is MLV. The test is described as follows: VRV study on Arginine treatment of PA eluate. In kind it is cell-based, Murine Leukemia Virus. On the procedure:
Based on the stability and activity studies reported in Example 1, the most promising viral inactivation methods were further tested for their ability to inactivate viruses. The effectiveness of the viral inactivation was evaluated by doing a spiking study at Bioreliance. Test samples were taken before and after each treatment and analyzed for viral titre. First, VRV study on Arginine treatment was carried out.
Only one virus, MLV, which is a typical model virus used for biological products derived from CHO cell lines such as monoclonal antibody, was used for this study. A total of 7 runs were performed. PA eluate from development runs was used as starting material. Different stock buffers of Arginine at the different pH (pH 4.0, pH 4.75, pH 4.79 and pH 5.5) were used to reach the target pH and concentration. The samples were neutralized using 250 mM Histidine pH 12.0 buffer around pH 6.0 to stop the reaction.
Log reduction values was calculated with respect to the neutralized load sample, a 5 plate large volume plating as well as a standard titration was performed on the t=60 min sample. The neutralized load hold sample was held at 16.0° C. to 20.0° C. for 60 minutes (runs 2, 4 and 6) or 120 minutes (runs 1, 3, 5 and 7).

This passage reports log10 reduction factor results from US20240002434A1, “METHODS OF INACTIVATING VIRAL CONTAMINANTS” (ICHNOS SCIENCES SA, priority 2017, published 2024).

Structures are written as SMILES.

In the case of `N=C(N)NCCC[C@H](N)C(=O)O` [Arginine], the log10 reduction factor is listed as 4.16 +/− 0.32 log10 (Run 2, Arginine concentration (mM) 0.4, pH 4, 60 min); 4.10 +/− 0.35 log10 (Run 3, Arginine concentration (mM) 0.8, pH 4, 120 min); 2.82 +/− 0.4 log10 (Run 4, Arginine concentration (mM) 0.8, pH 4.75, 60 min); “no reduction” (Run 5, Arginine concentration (mM) 0.38, pH 4.79, 120 min); 0.35 +/− 0.4 log10 (Run 6, Arginine concentration (mM) 0, pH 5.5, 60, 120 min); “no reduction” (Run 7, Arginine concentration (mM) 0.8, pH 5.5, 120 min).
